#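 Compound exposure: 48 hours, 5 concentrations, 96-well plates. The concentration for 50% growth inhibition is given as GI50.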 Active and inactive are the calls of the source. Cut-off read from the data, not from the text of the source: active = GI50 up to about 1.1 µM and inactive = higher.
# Experiments:
# Assay in all cases: growth of human tumour cells (NCI), 48 h
# BT-549 = system: BT-549
# Hs-578T = system: Hs-578T
# SF-268 = system: SF-268
# HL-60 = system: HL-60
# K562 = system: K562
# SNB-75 = system: SNB-75
# M14 = system: M14
# RXF 393 = system: RXF 393
# TK-10 = system: TK-10
# COLO 205 = system: COLO 205
# A549 = system: A549
# IGROV-1 = system: IGROV-1
# EKVX = system: EKVX
# SW-620 = system: SW-620
# UO-31 = system: UO-31
# NCI-H460 = system: NCI-H460
# HOP-92 = system: HOP-92
# KM12 = system: KM12
# SF-295 = system: SF-295
# MCF7 = system: MCF7
Compound,GI50 (BT-549),GI50 (Hs-578T),GI50 (SF-268),GI50 (HL-60),GI50 (K562),GI50 (SNB-75),GI50 (M14),GI50 (RXF 393),GI50 (TK-10),GI50 (COLO 205),GI50 (A549),GI50 (IGROV-1),GI50 (EKVX),GI50 (SW-620),GI50 (UO-31),GI50 (NCI-H460),GI50 (HOP-92),GI50 (KM12),GI50 (SF-295),GI50 (MCF7)
CCOC(=O)C(NC(=O)NCc1ccc(F)cc1)C(F)(F)F (stereo unspecified),> 100 µM (inactive),> 100 µM (inactive),> 100 µM (inactive),> 100 µM (inactive),> 100 µM (inactive),> 100 µM (inactive),> 100 µM (inactive),> 100 µM (inactive),> 100 µM (inactive),> 100 µM (inactive),> 100 µM (inactive),> 100 µM (inactive),> 100 µM (inactive),> 100 µM (inactive),> 100 µM (inactive),,,,,
COC(=O)C1=C(C)NC(C)=C(C(=O)OC)C1c1cccc(NO)c1,18.4 µM (inactive),18.4 µM (inactive),16.6 µM (inactive),,4.76 µM (inactive),,18.9 µM (inactive),13.9 µM (inactive),14.2 µM (inactive),16.7 µM (inactive),> 100 µM (inactive),16.7 µM (inactive),22.2 µM (inactive),13.7 µM (inactive),11.5 µM (inactive),15.1 µM (inactive),11.5 µM (inactive),15.9 µM (inactive),25.9 µM (inactive),19 µM (inactive)
COc1ccc(/N=N/C(=N/NC(=O)c2cc(Cl)ccc2C(=O)c2ccccc2)c2ccc(N(CCC#N)CCC#N)cc2C)cc1,29.4 µM (inactive),29.9 µM (inactive),12.1 µM (inactive),,12.9 µM (inactive),27.8 µM (inactive),18.2 µM (inactive),3.8 µM (inactive),18.2 µM (inactive),17.6 µM (inactive),18.8 µM (inactive),6.49 µM (inactive),16.1 µM (inactive),22.3 µM (inactive),20.3 µM (inactive),11.5 µM (inactive),,21.4 µM (inactive),26.1 µM (inactive),25.4 µM (inactive)
COc1ccc([C@@]23CCC(=O)C[C@@H]2N(C)CC3)cc1OC,,> 100 µM (inactive),> 100 µM (inactive),> 100 µM (inactive),> 100 µM (inactive),> 100 µM (inactive),> 100 µM (inactive),> 100 µM (inactive),> 100 µM (inactive),> 100 µM (inactive),> 100 µM (inactive),> 100 µM (inactive),> 100 µM (inactive),> 100 µM (inactive),> 100 µM (inactive),> 100 µM (inactive),> 100 µM (inactive),> 100 µM (inactive),> 100 µM (inactive),> 100 µM (inactive)
COc1ccc(/C=N/n2c(C)n[nH]c2=O)c(OC)c1,> 100 µM (inactive),3.08 µM (inactive),> 100 µM (inactive),,> 100 µM (inactive),> 100 µM (inactive),> 100 µM (inactive),,,> 100 µM (inactive),> 100 µM (inactive),,83 µM (inactive),> 100 µM (inactive),> 100 µM (inactive),> 100 µM (inactive),,> 100 µM (inactive),> 100 µM (inactive),> 100 µM (inactive)
COc1cc2c(cc1O)c(O)cc1c3cc(OC)c(OC)cc3c[n+](C)c21,23 µM (inactive),4.23 µM (inactive),< 0.01 µM (active),,5.04 µM (inactive),35.2 µM (inactive),> 100 µM (inactive),> 67.5 µM (inactive),> 100 µM (inactive),> 43.3 µM (inactive),44 µM (inactive),,> 100 µM (inactive),28.2 µM (inactive),53.5 µM (inactive),15.9 µM (inactive),,> 100 µM (inactive),18.7 µM (inactive),8.73 µM (inactive)
CC[C@H]1C=CCC[C@@]2(C[C@@H]3CC[C@@H]4[C@H](C(=O)OCCCCCCCCCCCCCCCC(=O)N(CCCN)CCCCN)[C@]5(CCC[C@@H](C)O5)NC(=[N+]34)N2)O1,0.138 µM (active),0.0875 µM (active),0.0214 µM (active),,0.0299 µM (active),0.0533 µM (active),< 0.01 µM (active),0.071 µM (active),1.23 µM (inactive),0.0336 µM (active),0.0365 µM (active),0.0695 µM (active),0.11 µM (active),0.0547 µM (active),0.0519 µM (active),0.0301 µM (active),0.0224 µM (active),0.0459 µM (active),0.024 µM (active),0.0684 µM (active)
O=C(Nc1ccc2[nH]c(C(=O)N3CC(CCl)c4ccc([N+](=O)[O-])cc43)cc2c1)c1cc2ccccc2o1 (stereo unspecified),> 1100 µM (inactive),> 1100 µM (inactive),> 1100 µM (inactive),> 1100 µM (inactive),,,> 1100 µM (inactive),> 1100 µM (inactive),,> 1100 µM (inactive),556 µM (inactive),> 1100 µM (inactive),> 1100 µM (inactive),> 1100 µM (inactive),> 1100 µM (inactive),98.4 µM (inactive),> 1100 µM (inactive),> 1100 µM (inactive),716 µM (inactive),> 1100 µM (inactive)
CNc1nc(C(N)=O)c(N)s1,> 100 µM (inactive),> 100 µM (inactive),> 100 µM (inactive),> 100 µM (inactive),> 100 µM (inactive),,> 100 µM (inactive),> 100 µM (inactive),> 100 µM (inactive),> 100 µM (inactive),> 100 µM (inactive),> 100 µM (inactive),> 100 µM (inactive),> 100 µM (inactive),> 100 µM (inactive),> 100 µM (inactive),> 100 µM (inactive),> 100 µM (inactive),> 100 µM (inactive),
CC1CC(=O)Nc2cc(Cl)ccc2N1C(=O)C1CC1 (stereo unspecified),> 100 µM (inactive),> 100 µM (inactive),> 100 µM (inactive),> 100 µM (inactive),> 100 µM (inactive),,> 100 µM (inactive),> 100 µM (inactive),> 100 µM (inactive),> 100 µM (inactive),> 100 µM (inactive),> 100 µM (inactive),> 100 µM (inactive),> 100 µM (inactive),> 100 µM (inactive),> 100 µM (inactive),> 100 µM (inactive),> 100 µM (inactive),> 100 µM (inactive),> 100 µM (inactive)
S=C(/N=c1\sc(Nc2ccc(Cl)cc2)nc2sc3c(c12)CCN(N1CCc2c(sc4nc(Nc5ccc(Cl)cc5)s/c(=N\C(=S)Nc5ccc(Cl)cc5)c24)C1)C3)Nc1ccc(Cl)cc1,> 100 µM (inactive),> 100 µM (inactive),> 100 µM (inactive),,,26.7 µM (inactive),60 µM (inactive),18.9 µM (inactive),44.6 µM (inactive),57.9 µM (inactive),55.2 µM (inactive),35.7 µM (inactive),61.7 µM (inactive),38.8 µM (inactive),62.1 µM (inactive),33.8 µM (inactive),,,38.7 µM (inactive),40.6 µM (inactive)
O=CCOCc1cc2c(cc1Br)OCO2,,17.1 µM (inactive),18.6 µM (inactive),20.9 µM (inactive),44.6 µM (inactive),48.9 µM (inactive),20.3 µM (inactive),37 µM (inactive),52.1 µM (inactive),> 100 µM (inactive),> 100 µM (inactive),32.8 µM (inactive),> 100 µM (inactive),20.9 µM (inactive),21.1 µM (inactive),> 100 µM (inactive),43.9 µM (inactive),33 µM (inactive),> 100 µM (inactive),20.3 µM (inactive)
CC12CCC(C(Nc3cc(C(F)(F)F)cc(C(F)(F)F)c3)C1=O)C2(C)C (stereo unspecified),> 100 µM (inactive),,> 100 µM (inactive),,> 100 µM (inactive),,> 100 µM (inactive),,> 100 µM (inactive),> 100 µM (inactive),> 100 µM (inactive),> 100 µM (inactive),> 100 µM (inactive),> 100 µM (inactive),> 100 µM (inactive),> 100 µM (inactive),,> 100 µM (inactive),> 100 µM (inactive),> 100 µM (inactive)
CN(Cc1cnc2nc(N)nc(N)c2n1)c1ccc(C(=O)N[C@@H](CCS(=O)(=O)O)C(=O)O)cc1,0.404 µM (active),> 100 µM (inactive),0.151 µM (active),,> 100 µM (inactive),,0.111 µM (active),0.0611 µM (active),,> 100 µM (inactive),0.182 µM (active),0.431 µM (active),> 73.3 µM (inactive),0.0824 µM (active),0.698 µM (active),0.169 µM (active),> 100 µM (inactive),1.64 µM (inactive),0.0766 µM (active),0.127 µM (active)
CN(C)CCO/N=C1/C=C2CC[C@H]3[C@@H]4CC[C@H](O)[C@@]4(C)CC[C@@H]3[C@@]2(C)CC1,2.61 µM (inactive),4.91 µM (inactive),7.48 µM (inactive),,6.22 µM (inactive),3.48 µM (inactive),8.26 µM (inactive),9.59 µM (inactive),11.1 µM (inactive),16.2 µM (inactive),18.3 µM (inactive),6.95 µM (inactive),15.6 µM (inactive),10.7 µM (inactive),12.3 µM (inactive),7.11 µM (inactive),7.85 µM (inactive),10.8 µM (inactive),13.9 µM (inactive),22.8 µM (inactive)
